Reference: patent US20100120789A1, “Compound” (priority 2005, published 2010)

Structure (SMILES)	melting point [°C]
CCN(Cc1cccs1)C(=O)C12CC3CC(CC(C3)C1)C2	103 to 105
COc1cc2c(cc1OCc1ccccc1)CCN(C(=O)CC13CC4CC(CC(C4)C1)C3)C2	133 to 135
CC(=O)Nc1ccc([S+]([O-])CC(=O)C23CC4CC(CC(C4)C2)C3)cc1 (stereo not drawn)	173.5 to 175.5
Cn1ccnc1S(=O)(=O)CC(=O)C12CC3CC(CC(C3)C1)C2 [STX2294, 1-Adamantan-1-yl-2-(1-methyl-1H-imidazole-2-sulfonyl)-ethanone]	124 to 125
O=C(NCc1cccc([N+](=O)[O-])c1)C12CC3CC(CC(C3)C1)C2 [STX2411, Adamantane-1-carboxylic acid 3-nitro-benzylamide]	145.5 to 147
O=S(=O)(NCC12CC3CC(CC(C3)C1)C2)c1ccc(-c2ccccc2)cc1 [STX1371, Biphenyl-4-sulfonic acid (adamantan-1-ylmethyl)-amide]	188 to 189.5
CN(CC(=O)C12CC3CC(CC(C3)C1)C2)Cc1cccs1.Cl	201 to 203
CC12CC3CC(C)(C1)CC(C(=O)NCCc1cccs1)(C3)C2 [STX1672, 3,5-Dimethyl-adamantane-1-carboxylic acid(2-thiophen-2-yl-ethyl)-amide]	131 to 132
COc1ccc(OCc2cn(C34CC5CC(CC(C5)C3)C4)nn2)cc1OC [STX1893, 1-Adamantan-1-yl-4-(3,4-dimethoxy-phenoxymethyl)-1H-[1,2,3]triazole]	108 to 112
CC(=O)Nc1ccc(NCC(=O)C23CC4CC(CC(C4)C2)C3)cc1 [STX2241, N-[4-(2-Adamantan-1-yl-2-oxo-ethylamino)-phenyl]acetamide]	156 to 158
COc1cc2c(cc1OC)CN(C(=O)C13CC4CC(CC(C4)C1)C3)CC2	151 to 155
O=C(NCc1ccc(Cl)cc1)C1CCN(C(=O)C23CC4CC(CC(C4)C2)C3)CC1 [STX2306, 1-(Adamantane-1-carbonyl)-piperidine-4-carboxylic acid 4-chloro-benzylamide]	150 to 152
O=C(NCCc1cccs1)C12CC3CC(CC(O)(C3)C1)C2 [STX1676, 3-Hydroxy-adamantane-1-carboxylic acid(2-thiophen-2-yl-ethyl)-amide]	118 to 119
O=S(=O)(NCC12CC3CC(CC(C3)C1)C2)c1cc(Cl)ccc1Cl [STX1369, N-Adamantan-1-ylmethyl-2,5-dichloro-benzenesulfonamide]	197 to 198
CCc1ccc(CN(C)C(=O)CC23CC4CC(CC(C4)C2)C3)s1 [STX2394, 2-Adamantan-1-yl-N-(5-ethyl-thiophen-2-ylmethyl)-N-methyl-acetamide]	54 to 55
[O-][S+](Cc1cn(C23CC4CC(CC(C4)C2)C3)nn1)c1cc(Cl)ccc1Cl (stereo not drawn) [STX1892, 1-Adamantan-1-yl-4-(2,5-dichloro-benzenesulfinylmethyl)-1H-[1,2,3]triazole]	125 to 128
CC(=O)Nc1ccc(S(=O)(=O)CC(=O)C23CC4CC(CC(C4)C2)C3)cc1 [STX2298, N-[4-(2-Adamantan-1-yl-2-oxo-ethanesulfonyl)-phenyl]-acetamide]	151 to 151.5
Cc1nc2c(NC(=O)C34CC5CC(CC(C5)C3)C4)c(C)ccc2s1 [STX1372, Adamantane-1-carboxylic acid (2,5-dimethyl-benzothiazol-4-yl)-amide]	183.5 to 185
Cc1c(Cl)cccc1S(=O)(=O)NCC12CC3CC(CC(C3)C1)C2 [STX1370, N-Adamantan-1-ylmethyl-3-chloro-2-methyl-benzenesulfonamide]	183 to 184
COc1cc2c(cc1OC)CN(C(=O)CC13CC4CC(CC(C4)C1)C3)CC2	165 to 167
O=C(Nc1nccs1)C12CC3CC(CC(C3)C1)C2 [STX2401, Adamantane-1-carboxylic acid thiazol-2-ylamide]	200 to 201
Cc1cccc(CN2CCN(C(=O)C34CC5CC(CC(C5)C3)C4)CC2)c1	185 to 187
CN(Cc1cccs1)C(=O)CSC12CC3CC(CC(C3)C1)C2	51 to 53
O=C(CC12CC3CC(CC(C3)C1)C2)N1CCN(C(=O)c2ccco2)CC1	98 to 100
O=C(O)c1ccc(OCC(=O)C23CC4CC(CC(C4)C2)C3)cc1 [STX2318, 4-(2-Adamantan-1-yl-2-oxo-ethoxy)-benzoic acid]	185.2
CN(Cc1cccnc1)C(=O)CC12CC3CC(CC(C3)C1)C2 [STX2409, 2-Adamantan-1-yl-N-methyl-N-pyridin-3-ylmethyl-acetamide]	67 to 68.5
O=S(=O)(Cc1cn(C23CC4CC(CC(C4)C2)C3)nn1)c1cc(Cl)ccc1Cl	198 to 199

Structure (SMILES)	melting point [°C]
O=C(C[S+]([O-])c1cccs1)C12CC3CC(CC(C3)C1)C2 (stereo not drawn) [STX1930, 1-Adamantan-1-yl-2-(thiophene-2-sulfinyl)-ethanone]	114 to 115.5
CCCc1ccc(S(=O)(=O)NCC23CC4CC(CC(C4)C2)C3)cc1 [STX1368, N-Adamantan-1-ylmethyl-4-propyl-benzenesulfonamide]	148 to 149
Cn1ccnc1[S+]([O-])CC(=O)C12CC3CC(CC(C3)C1)C2 (stereo not drawn) [STX1924, 1-Adamantan-1-yl-2-(1-methyl-1H-imidazole-2-sulfinyl)-ethanone]	86 to 89
COC(=O)c1ccc(OCC(=O)C23CC4CC(CC(C4)C2)C3)cc1	128.7
O=C(N1CCN(c2ccc(Cl)cc2)CC1)C12CC3CC(CC(C3)C1)C2 [STX2120, Adamantan-1-yl-[4-(4-chloro-phenyl)-piperazin-1-yl]methanone]	183 to 185
Cc1c(C(=O)CSCc2ccc(Cl)cc2)sc2ccc(Cl)cc12	123 to 124
O=C(CS(=O)(=O)c1cccs1)C12CC3CC(CC(C3)C1)C2 [STX2295, 1-Adamantan-1-yl-2-(thiophene-2-sulfonyl)-ethanone]	117.5 to 119
COc1cc2c(cc1OCc1ccccc1)CCN(C(=O)C13CC4CC(CC(C4)C1)C3)C2	144 to 145
O=C(COCc1cccs1)C12CC3CC(CC(C3)C1)C2 [STX1692, 1-Adamantan-1-yl-2-(thiophen-2-ylmethoxy)-ethanone]	57.2 to 58.3
O=C(NCCc1cccs1)[C@H]1CC2C=CC1C2 (stereo partly drawn) [STX1707, Bicyclo[2.2.1]hept-5-ene-2-carboxylic acid(2-thiophen-2-yl-ethyl)-amide (exo)]	71 to 72
O=C(NCc1cccs1)C12CC3CC(CC(C3)C1)C2 [STX1374, Adamantane-1-carboxylic acid (thiophen-2-ylmethyl)-amide]	155 to 155.5
O=C(C[S+]([O-])Cc1ccco1)C12CC3CC(CC(C3)C1)C2 (stereo not drawn) [STX1908, 1-Adamantan-1-yl-2-(furan-2-ylmethanesulfinyl)-ethanone]	75 to 79
Cc1cccc(CN2CCN(C(=O)CC34CC5CC(CC(C5)C3)C4)CC2)c1 [STX2403, 2-Adamantan-1-yl-1-[4-(3-methyl-benzyl)-piperazin-1-yl]-ethanone]	86 to 88
O=C(NCCc1cccs1)C12CC3CC(CC(C3)C1)C2 [STX1375, Adamantane-1-carboxylic acid (2-thiophen-2-yl-ethyl)-amide]	123 to 126
O=S(=O)(NC12CC3CC(CC(C3)C1)C2)c1ccc(-c2ccccc2)cc1 [STX1344, Biphenyl-4-sulfonic acid adamantan-1-ylamide]	205 to 205.5
O=S(=O)(NC12CC3CC(CC(C3)C1)C2)c1cc(Cl)ccc1Cl [STX1342, N-Adamantan-1-yl-2,5-dichloro-benzenesulfonamide]	189 to 190
CCN(CC)C(=O)c1ccc(OCC(=O)C23CC4CC(CC(C4)C2)C3)cc1 [STX2375, 4-(2-Adamantan-1-yl-2-oxo-ethoxy)-N,N-diethyl-benzamide]	103.9
Cc1c(Cl)cccc1S(=O)(=O)NC12CC3CC(CC(C3)C1)C2 [STX1343, N-Adamantan-1-yl-3-chloro-2-methyl-benzenesulfonamide]	197.5 to 198
Cc1ccc(CNC(=O)C2CCN(C(=O)C34CC5CC(CC(C5)C3)C4)CC2)cc1	155.5 to 157
O=C(CSc1cccs1)C12CC3CC(CC(C3)C1)C2 [STX1902, 1-Adamantan-1-yl-2-(thiophen-2-ylsulfanyl)-ethanone]	69 to 72
O=C(O)c1cccc(OCC(=O)C23CC4CC(CC(C4)C2)C3)c1 [STX2361, 3-(2-Adamantan-1-yl-2-oxo-ethoxy)-benzoic acid]	156.2
COc1cc2c(cc1O)CCN(C(=O)CC13CC4CC(CC(C4)C1)C3)C2	169 to 172
O=C(NC12CC3CC(CC(C3)C1)C2)OCCc1cccs1 [STX1712, Adamantan-1-yl-carbamic acid 2-thiophen-2-yl-ethyl ester]	67 to 69
CN(Cc1cccnc1)C(=O)C12CC3CC(CC(C3)C1)C2 [STX2135, Adamantane-1-carboxylic acid methyl-pyridin-3-ylmethyl-amide]	57 to 59.5
CN(Cc1cccs1)C(=O)[C@H]1CC2C=CC1C2 (stereo partly drawn) [STX1709, Bicyclo[2.2.1]hept-5-ene-2-carboxylic acid methyl-thiophen-2-ylmethyl-amide (exo)]	74 to 75
O=C(C[S+]([O-])Cc1cccs1)C12CC3CC(CC(C3)C1)C2 (stereo not drawn) [STX1929, 1-Adamantan-1-yl-2-(thiophen-2-ylmethanesulfinyl)-ethanone]	95 to 98
COC(=O)c1ccc(COCC(=O)C23CC4CC(CC(C4)C2)C3)cc1	88.7
